Values of other authors as cited in PMC10778976, “BAY-3827 and SBI-0206965: Potent AMPK Inhibitors That Paradoxically Increase Thr172 Phosphorylation” (International Journal of Molecular Sciences, 2023).

Molecular target: T1, LKB1 (human LKB1:STRADα:MO25α complex) (Homo sapiens, UniProt Q15831)
T1 construct: made in house
T1 sequence (Q15831 1-433): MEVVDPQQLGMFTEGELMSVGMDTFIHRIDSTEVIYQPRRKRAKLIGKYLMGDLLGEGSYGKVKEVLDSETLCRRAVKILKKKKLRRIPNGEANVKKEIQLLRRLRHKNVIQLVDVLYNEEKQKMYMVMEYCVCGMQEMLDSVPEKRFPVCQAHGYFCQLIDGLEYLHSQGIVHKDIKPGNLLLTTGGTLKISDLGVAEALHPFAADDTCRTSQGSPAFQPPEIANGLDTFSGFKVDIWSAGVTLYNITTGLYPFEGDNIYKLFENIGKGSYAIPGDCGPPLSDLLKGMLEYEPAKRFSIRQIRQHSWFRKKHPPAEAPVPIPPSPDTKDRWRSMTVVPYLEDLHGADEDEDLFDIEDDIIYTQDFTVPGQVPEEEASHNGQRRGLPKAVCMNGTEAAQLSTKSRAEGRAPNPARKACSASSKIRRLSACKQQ
T1 sequence (Q7RTN6 1-431 partner): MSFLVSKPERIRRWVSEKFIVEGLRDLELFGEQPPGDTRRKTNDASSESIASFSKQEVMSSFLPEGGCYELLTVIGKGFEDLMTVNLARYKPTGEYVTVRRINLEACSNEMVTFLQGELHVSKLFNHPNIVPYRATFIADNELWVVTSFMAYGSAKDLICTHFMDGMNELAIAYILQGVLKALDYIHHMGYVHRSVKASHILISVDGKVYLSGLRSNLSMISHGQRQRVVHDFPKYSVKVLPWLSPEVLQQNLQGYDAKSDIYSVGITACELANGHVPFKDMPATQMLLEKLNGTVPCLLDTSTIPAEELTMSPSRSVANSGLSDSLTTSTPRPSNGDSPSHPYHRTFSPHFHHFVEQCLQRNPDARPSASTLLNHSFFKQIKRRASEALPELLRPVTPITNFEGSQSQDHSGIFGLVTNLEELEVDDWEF
T1 sequence (Q9Y376 1-341 partner): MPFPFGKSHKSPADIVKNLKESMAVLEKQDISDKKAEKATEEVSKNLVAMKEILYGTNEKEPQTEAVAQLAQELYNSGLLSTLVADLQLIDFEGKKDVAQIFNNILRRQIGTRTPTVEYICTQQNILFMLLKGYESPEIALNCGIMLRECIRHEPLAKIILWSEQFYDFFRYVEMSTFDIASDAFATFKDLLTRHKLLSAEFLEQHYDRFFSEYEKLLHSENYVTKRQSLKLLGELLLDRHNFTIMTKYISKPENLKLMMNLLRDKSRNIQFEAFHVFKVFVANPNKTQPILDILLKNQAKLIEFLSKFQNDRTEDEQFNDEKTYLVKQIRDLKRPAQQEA
Conditions: single fixed inhibitor concentration (0.25 µM); cited from earlier work

## CNC(=O)c1ccccc1Oc1nc(Nc2cc(OC)c(OC)c(OC)c2)ncc1Br [SBI-0206965]
  inhibition of LKB1: did not inhibit
